Values after ≈ are worked out from the molar mass of the structure shown.
Conditions: buffer; pH 7.4; 200.0 µM

SMILES	solubility kinetic
CC(C)(C)c1cc(CCC(=O)N2CCCC2)cc(C(C)(C)C)c1O	0.0438 mg/mL (≈ 132 µM)
CCN1CCN(c2ncnc3sc4c(c23)CCC(C)C4)CC1 (centres undefined)	0.0264 mg/mL (≈ 83.4 µM)
Cc1ccc(SCC(=O)OCC(=O)NC2CCCCCC2)cc1	> 0.0503 mg/mL
Cc1cccc(NC(=O)C2CC2c2ccccc2)c1C (centres undefined)	0.0038 mg/mL (≈ 14.3 µM)
Cc1ccc(Nc2nnc(C)c3ccccc23)c(C)c1	> 0.0395 mg/mL
CN(CCCC(=O)N1CCN(c2ncccn2)CC1)S(=O)(=O)c1ccc(F)cc1	> 0.0632 mg/mL
CN=C(c1ccc([N+](=O)[O-])cc1)N1CCCCC1	> 0.0371 mg/mL
O=S(=O)(c1ccc(F)cc1)N1CCN(CCc2ccccc2)CC1	0.0041 mg/mL (≈ 11.8 µM)
O=C(Nc1ccccc1O)c1ccc(C(=O)c2ccccc2)o1	< 0.0007 mg/mL
CCCCn1c(N)c(N(CC)C(=O)c2c(C)noc2C)c(=O)[nH]c1=O	> 0.0524 mg/mL
O=C(O)CSc1cccnc1Sc1ccc(Cl)cc1	> 0.0468 mg/mL
Cc1ccc(CN2CCC(NC(=O)c3ccccc3)CC2)cc1	> 0.0463 mg/mL
CCOc1ccc(CNc2ccc(N3CCN(Cc4ccccc4)CC3)cc2)cc1	0.0009 mg/mL (≈ 2.24 µM)
c1cncc(C2OCC3(CO2)COC(c2cccnc2)OC3)c1 (centres undefined)	> 0.0472 mg/mL
CC1=C/C(=N\OS(=O)(=O)c2ccccc2)C=CC1=O	0.0079 mg/mL (≈ 28.5 µM)
COc1ccc(C(=O)N2CCC(C(=O)c3c(C)cc(C)cc3C)CC2)cc1	0.0314 mg/mL (≈ 85.9 µM)
Cc1cc(C)n2nc(SC(C)C(=O)N3CC(C)OC(C)C3)nc2n1 (centres undefined)	> 0.0524 mg/mL
CC(=O)c1ccc(NC(=O)c2ccc3nc(C)sc3c2)cc1	0.0019 mg/mL (≈ 6.12 µM)
CN(Cc1ccccc1)C(NC(=O)c1ccco1)C(Cl)(Cl)Cl (centres undefined)	0.0282 mg/mL (≈ 78 µM)
Cc1ccc(CSCc2ccc(C(=O)NC3CC3)o2)cc1	> 0.0452 mg/mL
COc1ccc2c(c1OC)C(=O)N1C2SC[C@H]1C(=O)NC1CC1 (some centres undefined)	> 0.0502 mg/mL
COC(=O)c1ccc(CN=C(NS(=O)(=O)c2ccccc2)c2ccccc2)cc1	> 0.0613 mg/mL
CCCCNC(=S)N1CCn2cccc2C1c1ccccc1 (centres undefined)	0.0055 mg/mL (≈ 17.5 µM)
COCCNC(=O)c1cc2cc(Cl)cc(Cl)c2oc1=O	0.0092 mg/mL (≈ 29.1 µM)

SMILES	solubility kinetic
O=S(=O)(NCCCc1ccccc1)c1ccc(Br)cc1	0.0107 mg/mL (≈ 30.2 µM)
O=C(Nc1cccc(Cl)c1)Nc1csc([N+](=O)[O-])c1	0.0005 mg/mL (≈ 1.68 µM)
CCN(CC(=O)NCc1cccs1)C(=O)c1ccc(Cl)c(Cl)c1	> 0.0557 mg/mL
Cc1ccsc1/C=N/NC(=O)CNC(=O)c1ccco1	> 0.0437 mg/mL
O=C(NCCc1ccc(Cl)cc1)C1CCCO1 (centres undefined)	> 0.0381 mg/mL
Oc1c(Cl)cc(Cl)cc1C1Nc2ccccc2-n2cccc21 (centres undefined)	< 0.0004 mg/mL
Cc1ccc(OS(=O)(=O)c2ccc(N3C(=O)CCC3=O)cc2)cc1	0.0183 mg/mL (≈ 53 µM)
C=CCn1c(O)c(C=Nc2ccc(F)cc2)c(=O)[nH]c1=O	0.0193 mg/mL (≈ 66.7 µM)
COc1ccc(-c2ccc(CCC(=O)O)n2-c2ccccc2O)cc1	> 0.0506 mg/mL
COc1ccc(OC)c(C(=O)COC(=O)c2ccc([N+](=O)[O-])o2)c1	> 0.0503 mg/mL
CN1CCN(C(=O)N(c2ccccc2)c2ccccc2)CC1.Cl	> 0.0498 mg/mL
CC1CCc2cc(F)ccc2N1S(=O)(=O)c1ccc(F)cc1 (centres undefined)	0.0024 mg/mL (≈ 7.42 µM)
CN(CCO)c1nc(N)c2c(N)nc3c(c2c1C#N)CC(=O)N3C1CCCC1	0.0107 mg/mL (≈ 28.1 µM)
O=C(COc1ccc(Br)cc1)N1CCc2ccccc2C1	0.0208 mg/mL (≈ 60.1 µM)
O=c1c2cccnc2nc2n1CCCCC2	> 0.0323 mg/mL
Nc1cc(S(=O)(=O)N2CCOCC2)ccc1N1CCCCC1	0.0422 mg/mL (≈ 130 µM)
CCCC(=O)Nc1nc2c(C)c(Cl)ccc2s1	< 0.0003 mg/mL
C/C(=N\OCC(=O)O)c1ccc(Cl)cc1	> 0.0341 mg/mL
Cc1ccc(NC(=O)COCC(=O)Nc2ccc(C)cc2)cc1	0.0031 mg/mL (≈ 9.92 µM)
C=CCn1c(=O)c2ccccc2n2c(SCC(=O)N(C)C)nnc12	> 0.0515 mg/mL
Cc1ccc(N2CC(C(=O)Nc3cccnc3)CC2=O)cc1C (centres undefined)	0.0313 mg/mL (≈ 101 µM)
CN(C)c1ccc(C(=O)NCc2ccc3c(c2)OCO3)cc1	0.0102 mg/mL (≈ 34.2 µM)
COc1ccc(S(=O)(=O)NCCN2CCNC2=O)cc1OC	0.0479 mg/mL (≈ 145 µM)
Cc1nc(SCc2c(Cl)cccc2Cl)nc(OC(=O)N(C)C)c1C	0.0022 mg/mL (≈ 5.69 µM)

SMILES	solubility kinetic
Cc1nc2ccccc2n1CCc1ccccc1	0.0301 mg/mL (≈ 127 µM)
Cn1nccc1NC(=O)c1nccnc1C(=O)O	> 0.0371 mg/mL
O=C(O)CCCCCNC(=O)/C(=C\c1ccco1)NC(=O)c1ccco1	0.0443 mg/mL (≈ 123 µM)
COc1ccccc1CN(C)CC(=O)Nc1cccc(S(=O)(=O)N2CCCC2)c1.O=C(O)C(=O)O	0.0573 mg/mL
COC(=O)c1ccc(S(=O)(=O)N(CCO)Cc2ccccc2)n1C	0.0476 mg/mL (≈ 135 µM)
C=CCN1C(=O)C2(OCCCO2)c2c(C)ccc(C)c21	0.0282 mg/mL (≈ 103 µM)
Cc1c(Cl)cccc1NC(=O)C1CCN(S(C)(=O)=O)CC1	0.0169 mg/mL (≈ 51.1 µM)
CN1C(=O)c2ccc(NC(=O)C3CC3)cc2C1=O	0.0334 mg/mL (≈ 137 µM)
Cc1ccc(NC(=O)NCCCN2CCCC2=O)cc1Cl	> 0.0465 mg/mL
O=C(COC(=O)/C=C/c1cccc(F)c1)NC1CC1	> 0.0395 mg/mL
Cc1ccc(CCCOC(=O)CN2CCCCC2)cc1	0.0235 mg/mL (≈ 85.3 µM)
O=C(CN1C(=O)COc2ccccc21)N1CCN(C2CCCCC2)CC1	0.0492 mg/mL (≈ 138 µM)
COC1=C(Nc2ccccc2OC)C(=O)c2ccccc2C1=O	0.0172 mg/mL (≈ 55.6 µM)
N#CCCN(Cc1cccnc1)C(=S)NC1CC2C=CC1C2 (centres undefined)	> 0.0469 mg/mL
CN(C)CCOc1cccc(Br)c1.O=C(O)C(=O)O	0.0446 mg/mL
Cc1ccc(OCC2Cn3c(nc4c3c(=O)[nH]c(=O)n4C)O2)cc1C (centres undefined)	0.0034 mg/mL (≈ 9.93 µM)
C#CCOc1ccc2c(c1)c(C(C)=O)c(C)n2Cc1ccccc1	0.001 mg/mL (≈ 3.15 µM)
COc1ccc(OCC(=O)NCCCCCCNC(=O)COc2ccc(OC)cc2)cc1	0.0026 mg/mL (≈ 5.85 µM)
CC(=O)Nc1ccc(/C=C/c2nc3ccccc3o2)cc1	0.0087 mg/mL (≈ 31.3 µM)
Cc1cc(C(=O)Nc2nccs2)c2cc(F)ccc2n1	0.0031 mg/mL (≈ 10.8 µM)
CC1CCCCC1NC(=O)COC(=O)c1cc(=O)[nH]c2ccccc12 (centres undefined)	0.0068 mg/mL (≈ 19.9 µM)
Nc1ccc(C(=O)[O-])cc1.O.[Na+]	> 0.0266 mg/mL
O=C(O)C(=O)O.OC(CN1CCCC1)Cn1ccc2ccccc21 (centres undefined)	> 0.0502 mg/mL
O=C(O)Cn1nc(-c2ccccc2)cc1-c1ccccc1	> 0.0417 mg/mL

SMILES	solubility kinetic
O=C(N[C@@H](Cc1ccccc1)C(=O)NC1CC1)c1ccc(Cl)cc1	0.0068 mg/mL (≈ 19.8 µM)
N#CSC(c1ccccc1)c1nc2ccccc2[nH]c1=O (centres undefined)	0.0269 mg/mL (≈ 91.7 µM)
O=C(Nc1nc(-c2ccccc2)cs1)c1ccco1	0.0223 mg/mL (≈ 82.5 µM)
CCN(c1ccccc1)S(=O)(=O)c1ccc(Cl)nc1	0.032 mg/mL (≈ 108 µM)
O=C(O)COCC(=O)N1CCCN(c2nc3ccc(Cl)cc3s2)CC1	> 0.0576 mg/mL
CCCS(=O)(=O)c1cnc(C2COc3ccccc3O2)nc1N (centres undefined)	0.0127 mg/mL (≈ 37.9 µM)
Cc1ccsc1C(=O)OCC(=O)NCc1ccc(Cl)cc1	0.0045 mg/mL (≈ 13.9 µM)
COc1cc(C)nc(-c2csc(C)n2)n1	0.0286 mg/mL (≈ 129 µM)
COc1ccc(CC(=O)N2CCN(c3ccccc3)CC2)cc1OC	0.0499 mg/mL (≈ 147 µM)
O=C(CNC(=O)c1ccco1)OCC(=O)c1ccc([N+](=O)[O-])cc1	> 0.0498 mg/mL
O=C(COc1ccccc1O)NCCN1CCOCC1	> 0.042 mg/mL
CN(c1ccccc1)S(=O)(=O)c1cccc(NC(=O)CSc2nccc(=O)[nH]2)c1	> 0.0646 mg/mL
Cc1cccc(-c2noc(-c3ccno3)n2)c1	0.0048 mg/mL (≈ 21.1 µM)
NCCCCCC(=O)O	0.0009 mg/mL (≈ 6.86 µM)
CC(=O)Nc1ccc2c3c(cccc13)C(=O)N(c1ccccc1)C2=O	0.0023 mg/mL (≈ 6.96 µM)
COc1ccc(/C=C2/SC(=S)NC2=O)cc1OCc1ccccc1	< 0.0008 mg/mL
N#Cc1ccsc1NC(=O)CN1CCOCC1	0.0286 mg/mL (≈ 114 µM)
CCCC(=O)Nc1ccc(C2C(=O)c3ccccc3C2=O)cc1	> 0.0461 mg/mL
Cc1ccc(S(=O)(=O)NCCC(=O)Nc2cccc(S(=O)(=O)N3CCCC3)c2)cc1C	0.0305 mg/mL (≈ 65.5 µM)
COc1ccc(C)cc1NC(=O)C1CC1c1ccccc1 (centres undefined)	0.0047 mg/mL (≈ 16.7 µM)
CN1CCC(NC(=S)Nc2cccc([N+](=O)[O-])c2)CC1	> 0.0442 mg/mL
C(#Cc1ccccc1)CN1CCOCC1.Cl	> 0.0357 mg/mL
COc1ccccc1CNC(=O)COC(=O)Cn1cnc2ccccc21	0.0383 mg/mL (≈ 108 µM)
CC(=O)Nc1cccc(C(=O)N2CCN(S(=O)(=O)Cc3ccccc3)CC2)c1	> 0.0602 mg/mL

SMILES	solubility kinetic
COc1cc(OC)cc(C(=O)Nc2ccc(N(C)C)c3ccccc23)c1	< 0.0004 mg/mL
CCN(CCCl)Cc1ccccc1Br.Cl	0.0421 mg/mL
O=C(NCCCO)c1c(O)c2cccc3c2n(c1=O)CCC3	> 0.0453 mg/mL
Cc1nc2c(C)cccc2c2c1CCN2c1ccccc1F	0.0333 mg/mL (≈ 114 µM)
Cc1ccc2[nH]c(C)c(CCNC(=O)c3c(N)no[n+]3[O-])c2c1	0.005 mg/mL (≈ 15.9 µM)
O=C1NCCCCC1NS(=O)(=O)c1cccc(C(F)(F)F)c1 (centres undefined)	> 0.0504 mg/mL
CC(C)CNS(=O)(=O)c1cc(C(=O)O)c(Cl)cc1Cl	> 0.0489 mg/mL
COc1ccc(N(C=O)C(=S)SC)cc1	0.0027 mg/mL (≈ 11.2 µM)
CCOC(=O)c1cc(-c2csc(COc3ccccc3Cl)n2)on1	< 0.0004 mg/mL
COc1ccc(/C=C/C(=O)Nc2c(C(=O)O)[nH]c3ccccc23)cc1OC	> 0.055 mg/mL
C=CCn1c(NCc2ccc(OC)cc2)nc2ccccc21	0.0337 mg/mL (≈ 115 µM)
O=C(CSc1nc2ccccc2c(=O)n1-c1ccccc1F)N1CCOCC1	0.0543 mg/mL (≈ 136 µM)
Cc1ccc(C)c(S(=O)(=O)N2CCN(C(=O)c3cccnc3)CC2)c1	0.0508 mg/mL (≈ 141 µM)
Cc1ccc(C(=O)NCN2CCN(c3ccc(F)cc3)CC2)cc1	> 0.0491 mg/mL
Cc1ccc(CNC(=O)C2CCC(=O)N2Cc2ccc(F)cc2)cc1 (centres undefined)	0.0502 mg/mL (≈ 147 µM)
CCOc1ncccc1C(=O)NCC(c1ccco1)N1CCCCC1 (centres undefined)	> 0.0515 mg/mL
Cc1cc(SCc2cccc([N+](=O)[O-])c2)nc(=O)[nH]1	0.0353 mg/mL (≈ 127 µM)
O=C(NCCc1ccc(Cl)cc1)C1COc2ccccc2O1 (centres undefined)	0.0055 mg/mL (≈ 17.3 µM)
O=C(O)c1nn(-c2cccc(C(F)(F)F)c2)ccc1=O	> 0.0426 mg/mL
COC(=O)c1cc(OC)nc2ccc(Br)cc12	< 0.0006 mg/mL
O=Cc1c(SCCO)nc2ccccn2c1=O	0.0176 mg/mL (≈ 70.3 µM)
COc1ccccc1OCCC(=O)OCC(=O)Nc1ccc2c(c1)OCCO2	0.0558 mg/mL (≈ 144 µM)
O=C(CSc1nc2ccccc2c(=O)n1-c1ccccc1F)NC1CC1	> 0.0554 mg/mL

Source: PubChem BioAssay AID1996
